How the values were obtained:
[1] = test system: mixed pool of 6 bacterial species (aerobic organisms); test: Biocidal efficacy at room temperature, aerobic bacteria; type: cell-based
Experimental: (§1) Glutaraldehyde and Compounds 1 and 2 are tested for biocidal activity against a pool of aerobic organisms at room temperature and against sulfate reducing bacteria (SRB) at room temperature. Tests are performed as follows:
(§2) a. Stock preparation. Glutaraldehyde (50% in water) and Compounds 1 and 2 are each dissolved in DMSO to a concentration of 200 mM, which is equivalent to 20,000 ppm of free glutaraldehyde.
b. Aerobic Bacteria—a mixed pool of 6 bacterial species at ˜5×10^6 CFU/mL in phosphate buffered saline is distributed into a 96-well plate. Each well receives an independent chemical treatment of glutaraldehyde or Compound 1 or 2 at concentrations ranging from 200 ppm to 12 ppm glutaraldehyde. A control treatment of DMSO alone is also included. Each condition is tested in triplicate. After set periods of incubation (1, 4, and 24 h), the number of surviving cells in each well are enumerated by dilution to extinction in a medium containing resazurin dye as an indicator. c. Sulfate Reducing Bacteria (SRB)—SRB testing is performed as for the aerobic bacteria with the following modifications: the species Desulfovibrio longus is tested in anaerobic PBS and the enumeration of surviving cells is performed in a medium containing soluble iron as an indicator. d. Results: Values indicate the minimum dose needed (in ppm) to achieve 3-log reduction in bacteria levels. […]

[2] = test system: Desulfovibrio longus; test: Biocidal efficacy at room temperature, sulfate reducing bacteria (SRB); type: cell-based; conditions: for minimum dose needed to achieve 3-log reduction in bacteria levels: SRB, anaerobic PBS, doses 200 to 12 ppm glutaraldehyde equivalent, n/a = threshold not met at any tested dose; for activity against SRB (in words): compared with glutaraldehyde
Experimental: as §1, §2
b. Aerobic Bacteria—a mixed pool of 6 bacterial species at ˜5×10^6 CFU/mL in phosphate buffered saline is distributed into a 96-well plate. Each well receives an independent chemical treatment of glutaraldehyde or Compound 1 or 2 at concentrations ranging from 200 ppm to 12 ppm glutaraldehyde. A control treatment of DMSO alone is also included. Each condition is tested in triplicate. After set periods of incubation (1, 4, and 24 h), the number of surviving cells in each well are enumerated by dilution to extinction in a medium containing resazurin dye as an indicator. c. Sulfate Reducing Bacteria (SRB)—SRB testing is performed as for the aerobic bacteria with the following modifications: the species Desulfovibrio longus is tested in anaerobic PBS and the enumeration of surviving cells is performed in a medium containing soluble iron as an indicator. d. Results: Values indicate the minimum dose needed (in ppm) to achieve 3-log reduction in bacteria levels. “n/a” indicates the threshold was not met at any of the tested doses. “N.D” indicates data not available.

[3] = Stability of the compound on work-up, GC of dried sample; type: physicochemical; conditions: GC peak becomes smaller after drying of the crude material
Experimental: A three neck 50 mL round bottom flask equipped with a stir bar, thermocouple, addition funnel capped with nitrogen inlet and condenser is charged with 2-amino-2-methylpropan-1-ol (95%, 7.8 g, 0.083 mols, 1.0 equivalents). The flask is cooled down to approximately 10° C. under ice/water bath. Once the temperature is reached, glutaraldehyde (50%, 16.7 g, 0.083 mols, 1.0 equivalents) is added drop wise over a period of 15-20 minutes. The reaction temperature is maintained by cooling the bath and by controlled addition of glutaraldehyde. After complete addition of glutaraldehyde, the transparent reaction mixture turns milky/opaque and a viscous sticky solid starts forming making stirring difficult. The reaction is stopped and the GC of the material is taken and a peak at 11.99 minutes is observed which corresponds to compound (4). The GC has some minor impurities in the high retention region. 20 mL of ethyl acetate is added to the reaction mixture and vigorously stirred under nitrogen. The entire content of the flask dissolve in ethyl acetate. The ethyl acetate layer is washed twice with 25 mL of water and the organic layer dried in magnesium sulfate.
A three neck 100 mL round bottom flask equipped with a stir bar, thermocouple, addition funnel capped with nitrogen inlet and condenser is charged with 3-aminobutan-2-ol (100%, 8.9 g, 0.1mols, 1.0 equivalent). […]

[4] = test system: Thermus thermophilus (ATCC 27634); test: Biocidal efficacy at elevated temperature; type: cell-based; conditions: for log kill of treated bacterial populations relative to an untreated control: 50 ppm glutaraldehyde equivalent
Experimental: Compound 1 (208 mg) is dissolved in DMSO (5 mL) to yield a 200 mM solution such that the glutaraldehyde-equivalent concentration of the stock solution is 20,000 ppm. The bacterial strain Thermus thermophilus (ATCC 27634) is maintained at 70° C. After 24-48 hours of growth, 10 mL of bacterial culture are harvested by spinning in a Beckman-Coulter benchtop centrifuge at 3000 rpm for 15 min. The cell pellet is resuspended in 100 mL of phosphate-buffered saline (PBS) to give approximately 5×10^5 CFU/mL and aliquoted into 10 mL portions in glass test tubes fitted with screw caps. Samples are equilibrated to 37, 55, or 70° C. for 30 min and then treated with glutaraldehyde or Compound 1 at 50 ppm glutaraldehyde equivalent. The treated samples are returned to their respective equilibration temperatures for 4 h and then enumerated for surviving bacteria. After 24 h, the process is repeated by adding fresh grown bacteria to the samples to re-challenge the biocide. The samples are again enumerated after 4 h.
Results are reported in terms of log kill of treated bacterial populations relative to an untreated control at each temperature. For values listed as “>x,” actual kill may have been higher but could not be detected by this assay.

Compound: CCCCC(CC)C1OC2CCC=CN2C1C (stereo not drawn) [Compound 2, 2-(heptan-3-yl)-3-methyl-3,7,8,8a-tetrahydro-2H-oxazolo[3,2-a]pyridine]
- biocidal activity against aerobic bacteria (in words) [1]: do not show significant biocidal activity
- minimum dose needed to achieve 3-log reduction in bacteria levels ([2]; 1 hour): 200 ppm
- minimum dose needed to achieve 3-log reduction in bacteria levels ([2]; 4 hours): >200 ppm
- activity against SRB (in words) [2]: some activity against SRB, but are not as effective as glutaraldehyde

Compound: CC1OC2CCC=CN2C1C (stereo not drawn) [Compound 5, 2,3-dimethyl-3,7,8,8a-tetrahydro-2H-oxazolo[3,2-a]pyridine]
- stability of the compound (in words) [3]: limited stability

Compound: CC1(C)COC2CCC=CN21 (stereo not drawn) [Compound 4, 3,3-dimethyl-3,7,8,8a-tetrahydro-2H-oxazolo[3,2-a]pyridine]
- stability of the compound (in words) [3]: limited stability

Compound: CCCCC1OC2CCC=CN2C1CC (stereo not drawn) [Compound 1, 2-butyl-3-ethyl-3,7,8,8a-tetrahydro-2H-oxazolo[3,2-a]pyridine]
- biocidal activity against aerobic bacteria (in words) [1]: do not show significant biocidal activity
- minimum dose needed to achieve 3-log reduction in bacteria levels ([2]; 4 hours): 200 ppm
- minimum dose needed to achieve 3-log reduction in bacteria levels ([2]; 24 hours): 26 ppm
- activity against SRB (in words) [2]: some activity against SRB, but are not as effective as glutaraldehyde
- log kill of treated bacterial populations relative to an untreated control ([4]; 37° C., 4 hr): >3 log
- log kill of treated bacterial populations relative to an untreated control ([4]; 37° C., 24 hr re-challenge with fresh bacteria, enumerated after 4 h): 2 log
- log kill of treated bacterial populations relative to an untreated control ([4]; 55° C., 4 hr): >3 log
- log kill of treated bacterial populations relative to an untreated control ([4]; 55° C., 24 hr re-challenge with fresh bacteria, enumerated after 4 h): 1 log
- activity compared with glutaraldehyde (in words) ([4]; 70° C.): equivalent activity to glutaraldehyde
- log kill of treated bacterial populations relative to an untreated control ([4]; 70° C., 4 hr): >4 log
- log kill of treated bacterial populations relative to an untreated control ([4]; 70° C., 24 hr re-challenge with fresh bacteria, enumerated after 4 h): >4 log
- activity compared with glutaraldehyde (in words) ([4]; lower temperatures (37, 55° C.)): less effective
